Experimental data from patent US5279956A, “Activated protein C polypeptides and anti-peptide antibodies, diagnostic methods and systems for inhibiting activated protein C” (The Scripps Research Institute, priority 1991, dated 1994).
pIC50: −log10 of the molar value. No end group written: not given here.

Molecular target: T1, APC (Homo sapiens, UniProt P04070)
T1 construct: begins at amino acid residue position 158 and ends at 419; The light chain is 155 amino acid residues in length; tissue Factor IX concentrate from Immuno AG, Vienna; thrombin from Enzyme Research Laboratories
Assay: APC-catalyzed inactivation of Factor Va, read out by Factor Va-prothrombinase assay
Type: biochemical
Procedure: FIG. 5 illustrates the APC-catalyzed inactivation of Factor Va in the presence of peptide-(390-404) and phospholipids. The assay was carried out in TBS-BSA and 2.5 mM CaCl2 at pH 7.4 as described in Example 5a5) using 0.25 nM APC, 10.0 nM Va, 50 μM phospholipid vesicles and 0 to 50 μM peptide-(390-404), that had been preincubated for 20 minutes at 22° C. with Factor Va. Factor Va inactivation by APC was indirectly determined using the cofactor activity of Factor Va in a prothrombinase assay as described in Example 5a5). Residual APC activity in the presence of the peptide was calculated from a standard curve.
The assay consisted of two parts wherein the APC catalyzed inactivation of Factor Va in the absence or presence of peptides was tested in the first part followed by the indirect determination of remaining Factor Va activity in a prothrombinase assay in the second part.
The APC catalyzed inactivation of Factor Va assays were performed in 96-well flat bottom ELISA plates (Stockwell Scientific, Walnut, Calif.). The reactions were performed either in the presence or absence of phospholipid vesicles to determine if peptide-(390-404) inhibited APC anticoagulant activity by inhibiting the binding of APC or its substrate to phospholipids or if it was independent of phospholipid surfaces. […]

T1 sequence (P04070 212-461): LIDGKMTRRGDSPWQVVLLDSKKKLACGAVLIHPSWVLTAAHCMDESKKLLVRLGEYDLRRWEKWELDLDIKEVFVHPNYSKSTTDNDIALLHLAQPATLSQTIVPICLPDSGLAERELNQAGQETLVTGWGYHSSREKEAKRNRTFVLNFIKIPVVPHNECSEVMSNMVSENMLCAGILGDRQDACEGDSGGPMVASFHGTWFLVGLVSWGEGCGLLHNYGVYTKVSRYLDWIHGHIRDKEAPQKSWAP
T1 sequence (P04070 43-197): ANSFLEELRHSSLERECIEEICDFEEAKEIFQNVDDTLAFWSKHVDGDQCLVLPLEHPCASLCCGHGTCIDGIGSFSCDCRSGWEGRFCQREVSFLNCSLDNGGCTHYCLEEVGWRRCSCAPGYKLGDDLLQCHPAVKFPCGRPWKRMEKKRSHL

Substance: YGVYTKVSRYLDWIH-NH2 [peptide-(390-404), YGVYTKVSRYLDWIH]
- pIC50 (50 μM phospholipid vesicles, 0.25 nM APC, 10.0 nM Va, read-out: half-maximal inhibition of APC-catalyzed inactivation of Factor Va): 5.40
- inhibition of APC activity (absence of phospholipids, 5 nM APC, 40 nM Va, 50 μM peptide): 94%
